Our source for the inhibition values is US8173689B2 (Novartis AG, priority 2006, dated 2012).

Read-outs that look alike come from different tables or passages of the source.

In experiment [1] the target is T1, cytoplasmic domain of the human CSF-1R (Homo sapiens, UniProt P07333).
T1 construct: Recombinant protein corresponding to the cytoplasmic domain of the human CSF-1R; purchased Invitrogen Corporation, Carlsbad, Calif; PV3249
T1 sequence (P07333 539-972 limits assumed): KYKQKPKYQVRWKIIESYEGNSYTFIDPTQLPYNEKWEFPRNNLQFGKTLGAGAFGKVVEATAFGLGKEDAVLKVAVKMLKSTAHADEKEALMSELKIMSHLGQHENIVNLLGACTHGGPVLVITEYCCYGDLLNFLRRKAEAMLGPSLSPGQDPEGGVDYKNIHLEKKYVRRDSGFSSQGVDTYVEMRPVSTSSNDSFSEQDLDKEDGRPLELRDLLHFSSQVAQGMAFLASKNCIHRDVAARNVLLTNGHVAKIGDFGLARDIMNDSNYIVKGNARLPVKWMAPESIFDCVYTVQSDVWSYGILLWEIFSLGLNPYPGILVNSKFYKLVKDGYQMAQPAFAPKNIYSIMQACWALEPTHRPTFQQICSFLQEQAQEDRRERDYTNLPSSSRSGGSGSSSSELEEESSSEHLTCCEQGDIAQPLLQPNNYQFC
The experiment in a line: In vitro kinase assay for colony stimulating factor-1 receptor (AlphaScreen). Type of experiment: biochemical. To be noted: tested at about 1 μM, read-out: CSF-1R percent inhibition. On the procedure:
The kinase activity of various protein tyrosine kinases can be measured by providing ATP and a suitable peptide or protein tyrosine-containing substrate, and assaying the transfer of phosphate moiety to the tyrosine residue. Recombinant protein corresponding to the cytoplasmic domain of the human CSF-1R was purchased from Invitrogen Corporation, Carlsbad, Calif. U.S.A. (#PV3249). For each assay, test compounds were serially diluted, starting at 25 μM with 3 fold dilutions, in DMSO in 384 well plates then mixed with an appropriate kinase reaction buffer consisting of 50 mM Hepes, 5 mM MgCl2, 10 mM MnCl2, 0.1% BSA, pH 7.5, 1.0 mM dithiothreitol, 0.01% Tween 80 plus 1 μM ATP. […] Added to the stopped reaction mix was 30 μL of PT66 Alphascreen beads (Perkin Elmer, Boston, Mass., U.S.A.). The reaction was incubated overnight and read on the Envision (Perkin Elmer). Phosphorylated peptide product was measured with the AlphaScreen system (Perkin Elmer) using acceptor beads coated with anti-phosphotyrosine antibody PT66 and donor beads coated with streptavidin that emit a fluorescent signal at the 520-620 nm emission wave length if in close proximity.
CSF-1R kinase was added at final concentration of 4 nM.
A general note: In Alpha technology, singlet oxygen from a donor bead excites a nearby acceptor bead.

For the next experiment, the target named is T2, kinase domain of cKIT (Homo sapiens, UniProt P10721).
T2 construct: The kinase domain of cKIT was assayed in 50 mM Hepes; purchased Upstate 14-559
Put plainly: Inhibition of cKIT kinase signaling in an in vitro biochemical assay (alphascreen). To be noted: tested at about 1 μM, read-out: cKit percent inhibition. How it is done: (§1) The IC50 values for the inhibition of RTKs were determined in the alphascreen format measuring the inhibition by compound of phosphate transfer to a substrate by the respective enzyme. Briefly, the respective RTK domain purchased as human recombinant protein (cKIT Upstate #14-559, PDGFRb Invitrogen #P3082) were incubated with serial dilutions of compound in the presence of substrate and ATP concentrations within 3 times the Km of the enzyme.
(§2) Alphascreen PY20 beads were added to the stopped cKIT reactions and PY20 Ab/Protein A Alphascreen beads were added to the PDGFRβ stopped reactions. Both reactions were incubated overnight and read on the Alphascreen reader.

Another experiment concerns the target T3, kinase domain of PDGFRβ (Homo sapiens, UniProt P09619).
T3 construct: The kinase domain of PDGFRβ was assayed in 50 mM Hepes; purchased Invitrogen P3082
Put plainly: Inhibition of PDGFRb kinase signaling in an in vitro biochemical assay (alphascreen). To be noted: tested at about 1 μM, read-out: PDGFRβ percent inhibition. How it is done: as §1, §2

T2 sequence (P10721 589-937 limits assumed): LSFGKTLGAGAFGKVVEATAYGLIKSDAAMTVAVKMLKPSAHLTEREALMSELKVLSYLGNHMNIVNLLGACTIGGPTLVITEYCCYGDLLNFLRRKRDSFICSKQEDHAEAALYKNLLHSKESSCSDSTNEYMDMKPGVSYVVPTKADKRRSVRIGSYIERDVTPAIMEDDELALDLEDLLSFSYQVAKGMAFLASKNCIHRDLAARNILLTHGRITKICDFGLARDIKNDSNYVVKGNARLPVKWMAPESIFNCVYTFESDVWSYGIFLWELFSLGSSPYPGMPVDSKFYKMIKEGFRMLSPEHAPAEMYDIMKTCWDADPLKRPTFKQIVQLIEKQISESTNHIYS
T3 sequence (P09619 600-962 limits assumed): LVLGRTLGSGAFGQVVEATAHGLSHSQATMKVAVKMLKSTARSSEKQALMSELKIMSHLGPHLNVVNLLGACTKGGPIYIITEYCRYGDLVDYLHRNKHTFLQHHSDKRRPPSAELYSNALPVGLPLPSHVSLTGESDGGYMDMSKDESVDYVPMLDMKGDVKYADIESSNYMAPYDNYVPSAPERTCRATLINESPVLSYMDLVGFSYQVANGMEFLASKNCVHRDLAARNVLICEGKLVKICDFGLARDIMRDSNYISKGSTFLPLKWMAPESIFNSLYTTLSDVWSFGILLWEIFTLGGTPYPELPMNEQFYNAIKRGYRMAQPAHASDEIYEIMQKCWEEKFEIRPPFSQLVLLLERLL

For `OCc1cc(Oc2ccc3nc(NCC4CCCCC4)oc3c2)ccn1` [Compound 80, {4-[2-(Cyclohexylmethyl-amino)-benzooxazol-6-yloxy]-pyridin-2-yl}-methanol], the inhibition at 1 µM in experiment [1] turned out to be 87%; on kinase domain of cKIT, 7%; at kinase domain of PDGFRβ, 0%.
Regarding `CN(C)C(=O)c1cc(Oc2ccc3nc(N[C@@H]4CCCC[C@H]4O)sc3c2)ccn1` [Compound 10], the inhibition at 1 µM in experiment [1] (compounds of Table 3) was 67%; at kinase domain of cKIT (compounds of Table 3) it was 0%; on kinase domain of PDGFRβ (compounds of Table 3), 9%.
On to `CNC(=O)c1cc(Oc2ccc3nc(NC4CCCC(N)C4)sc3c2)ccn1` (stereo not drawn) [Example 294, 4-(2-(3-aminocyclohexylamino)benzo[d]thiazol-6-yloxy)-N-methylpicolinamide], for which the inhibition at 1 µM is 87% in experiment [1] (compounds of Table 3), 1% on kinase domain of cKIT (compounds of Table 3) and 0% on kinase domain of PDGFRβ (compounds of Table 3).
`CNC(=O)c1cc(Oc2ccc3nc(NC(C)C(O)c4cc(OC)ccc4OC)sc3c2)ccn1` (stereo not drawn) [Compound 123]: the inhibition at 1 µM worked out at 62% in experiment [1] (compounds of Table 3), 1% at kinase domain of cKIT (compounds of Table 3) and 0% at kinase domain of PDGFRβ (compounds of Table 3).
For `CC(=O)N[C@@H]1CCN(c2cc(Oc3ccc4nc(N[C@@H]5CCCC[C@H]5O)sc4c3)ccn2)C1` [Cmpd 177, N-((R)-1-(4-(2-((1R,2R)-2-hydroxycyclohexylamino)benzo[d]thiazol-6-yloxy)pyridin-2-yl)pyrrolidin-3-yl)acetamide], in that order: 67%, 15% and 0%.
`NCc1cc(Oc2ccc3nc(NCC4CCCCC4)oc3c2)ccn1` [Compound 111, [6-(2-Aminomethyl-pyridin-4-yloxy)-benzooxazol-2-yl]-cyclohexylmethyl-amine]: the inhibition at 1 µM came to 25% in experiment [1], 15% at kinase domain of cKIT and 2% on kinase domain of PDGFRβ.
On to `CCN1CCC[C@H]1CNC(=O)c1cc(Oc2ccc3nc(N[C@@H]4CCCC[C@H]4O)sc3c2)ccn1` [Compound 20], for which the results for the inhibition at 1 µM (in experiment [1] (compounds of Table 3); on kinase domain of cKIT (compounds of Table 3); on kinase domain of PDGFRβ (compounds of Table 3)) were 76%, 0% and 0%, respectively.
As for `CNC(=O)c1cc(Oc2ccc3nc(N[C@@H]4CCN(C(C)=O)C4)sc3c2)ccn1` [Example 303, (R)-4-(2-(1-acetylpyrrolidin-3-ylamino)benzo[d]thiazol-6-yloxy)-N-methylpicolinamide], the figures for the inhibition at 1 µM (in experiment [1]; at kinase domain of cKIT; at kinase domain of PDGFRβ) were 74%, 24% and 12%, respectively.
Consider `CNC(=O)c1cc(Oc2ccc3nc(N[C@H]4CCCC[C@H]4NC(=O)C(C)C)sc3c2)ccn1` [Example 310, 4-(2-((1S,2R)-2-isobutyramidocyclohexyl-amino)benzo[d]thiazol-6-yloxy)-N-methylpicolinamide], for which the inhibition at 1 µM in experiment [1] turned out to be 15%; on kinase domain of cKIT, 13%; at kinase domain of PDGFRβ it was 13%.
As to `CNC(=O)c1cc(Oc2ccc3nc(N[C@H]4CCCC[C@H]4NC(C)=O)sc3c2)ccn1` [Example 295, 4-(2-((1S,2R)-2-acetamidocyclohexylamino)benzo[d]thiazol-6-yloxy)-N-methylpicolinamide], the inhibition at 1 µM worked out at 85% in experiment [1] (compounds of Table 3), 5% on kinase domain of cKIT (compounds of Table 3) and 0% at kinase domain of PDGFRβ (compounds of Table 3).
For the compound `CNC(=O)c1cc(Oc2ccc3nc(NCC4CN(Cc5ccccc5)CCO4)oc3c2)ccn1` (stereo not drawn) [Compound 120, 4-{2-[(4-Benzyl-morpholin-2-ylmethyl)-amino]-benzooxazol-6-yloxy}-pyridine-2-carboxylic acid methylamide], the inhibition at 1 µM is 75% in experiment [1], 5% at kinase domain of cKIT and 0% at kinase domain of PDGFRβ.
As to `c1cc(Oc2ccc3nc(NCC4CCCCC4)oc3c2)cc(-c2nnco2)n1` [Compound 81, Cyclohexylmethyl-[6-(2-[1,3,4]oxadiazol-2-yl-pyridin-4-yloxy)-benzooxazol-2-yl]-amine], the inhibition at 1 µM in experiment [1] was found to be 54%; on kinase domain of cKIT, 16%; at kinase domain of PDGFRβ, 0%.
For `CNC(=O)c1cc(Oc2ccc3nc(N[C@@H]4CCCN(C(C)=O)C4)sc3c2)ccn1` [Example 302, (R)-4-(2-(1-acetylpiperidin-3-ylamino)benzo[d]thiazol-6-yloxy)-N-methylpicolinamide], the inhibition at 1 µM in experiment [1] was 68%; on kinase domain of cKIT, 20%; on kinase domain of PDGFRβ it was 0%.
Turning to `CNC(=O)c1cc(Oc2cc3sc(NCC4CCCCC4)nc3cc2F)ccn1` [Example 379, 4-(2-(cyclohexylmethylamino)-5-fluorobenzo[d]thiazol-6-yloxy)-N-methylpicolinamide], the inhibition at 1 µM in experiment [1] was 77%; at kinase domain of cKIT, 16%; on kinase domain of PDGFRβ, 36%.
With `O[C@@H]1CCCC[C@H]1Nc1nc2ccc(Oc3ccnc(C4CC4)c3)cc2s1` [Cmpd 169, (1R,2R)-2-(6-(2-cyclopropylpyridin-4-yloxy)benzo[d]thiazol-2-ylamino)cyclohexanol], the inhibition at 1 µM amounted to 75% in experiment [1] (compounds of Table 3), 12% on kinase domain of cKIT (compounds of Table 3) and 0% at kinase domain of PDGFRβ (compounds of Table 3).
On to `CNC(=O)c1cc(Oc2ccc3nc(N[C@@H](C(=O)NC)C4CCCCC4)oc3c2)ccn1` [Compound 62, 4-{2-[((R)-Cyclohexyl-methylcarbamoyl-methyl)-amino]-benzooxazol-6-yloxy}-pyridine-2-carboxylic acid methylamide], for which the inhibition at 1 µM in experiment [1] was found to be 19%; at kinase domain of cKIT, 7%; on kinase domain of PDGFRβ it was 5%.
For `CNC(=O)c1cc(Oc2ccc3nc(NC(C)C)oc3c2)ccn1` [Compound 98, 4-(2-Isopropylamino-benzo-oxazol-6-yloxy)-pyridine-2-carboxylic acid methylamide], in that order: 26%, 7% and 0%.
Take `CNC(=O)c1cc(Oc2ccc3nc(NCc4c(F)cccc4Cl)oc3c2)ccn1` [Compound 78, 4-[2-(2-Chloro-6-fluoro-benzylamino)-benzooxazol-6-yloxy]-pyridine-2-carboxylic acid methylamide]: the inhibition at 1 µM turned out to be 87% in experiment [1], 9% at kinase domain of cKIT and 0% at kinase domain of PDGFRβ.
Consider `CNC(=O)c1cc(Oc2ccc3nc(NCC4CCCO4)oc3c2)ccn1` (stereo not drawn) [Compound 102, 4-{2-[(Tetrahydro-furan-2-ylmethyl)-amino]-benzooxazol-6-yloxy}-pyridine-2-carboxylic acid methylamide], for which the figures for the inhibition at 1 µM (in experiment [1]; on kinase domain of cKIT; at kinase domain of PDGFRβ) were 83%, 14% and 0%, respectively.
Consider `CNC(=O)c1cc(Oc2ccc3nc(N[C@H]4c5ccccc5C[C@H]4O)oc3c2)ccn1` [Compound 49, 4-[2-((1S,2R)-2-Hydroxy-indan-1-ylamino)-benzooxazol-6-yloxy]-pyridine-2-carboxylic acid methylamide], for which the results for the inhibition at 1 µM (in experiment [1]; on kinase domain of cKIT; on kinase domain of PDGFRβ) were 55%, 63% and 25%, respectively.
For the compound `CNC(=O)c1cc(Oc2ccc3nc(NC(C)(C)C)oc3c2)ccn1` [Compound 100, 4-(2-tert-Butylamino-benzo-oxazol-6-yloxy)-pyridine-2-carboxylic acid methylamide], the inhibition at 1 µM was 99% in experiment [1], 10% at kinase domain of cKIT and 9% at kinase domain of PDGFRβ.

By inhibition is commonly meant how much of the control response was suppressed.
